Experimental findings from PMC4182091, “A Common Minimal Motif for the Ligands of HLA-B*27 Class I Molecules” (PLoS ONE, 2014) are described below.

One may read the EC50 as the concentration needed to bring the measured effect to its halfway point. Read a high EC50 as a less potent agent.

Holding throughout (assay type): cell-based
One assay deals with T1, HLA-B*2705 (Homo sapiens, UniProt P01889, D138H/D201E/E176V/E204Q/G107R/H137Y/K202T/N104T/N87E/Q56L/Q94K/R106L/R155S/R180L/S101D/S121N/S48T/Y140D/Y33H/Y91C).
T1 construct: expressed in transfected cells; host or cells: RMA-S (TAP-deficient murine cell line)
In words: HLA/peptide complex stability assay, RMA-S cells transfected with HLA-B*2705. Particulars: SD.

Another assay concerns the target T2, HLA-B*2703 (Homo sapiens, UniProt P01889, D138H/D201E/E176V/E204Q/G107R/H137Y/K202T/N104T/N87E/Q56L/Q94K/R106L/R155S/R180L/S101D/S121N/S48T/Y140D/Y33H/Y83H/Y91C).
T2 construct: expressed in transfected cells; host or cells: RMA-S (TAP-deficient murine cell line)
The assay is described as follows: HLA/peptide complex stability assay, RMA-S cells transfected with HLA-B*2703. Particulars: EC50, B*2703; SD.

The next assay deals with HLA-B*2704 (Homo sapiens, UniProt P01889, A235G/D138H/D201E/E204Q/G107R/H137Y/K202T/N104T/N87E/Q56L/Q94K/R106L/R155S/R180L/S121N/S48T/Y140D/Y33H/Y91C). In words: HLA/peptide complex stability assay, RMA-S cells transfected with HLA-B*2704. Particulars: SD.
The target of another assay is T3, HLA-B*2706 (Homo sapiens, UniProt P01889, A235G/D201E/E204Q/G107R/H137Y/K202T/N104T/N87E/Q56L/Q94K/R106L/R155S/R180L/S121N/S48T/Y33H/Y91C).
T3 construct: expressed in transfected cells; host or cells: RMA-S (TAP-deficient murine cell line)
The assay is described as follows: HLA/peptide complex stability assay, RMA-S cells transfected with HLA-B*2706. Particulars: SD.

For a further assay, the target named is T4, HLA-B*2701 (Homo sapiens, UniProt P01889, D138H/D201E/D98Y/E176V/E204Q/G107R/H137Y/K202T/L105A/N104T/N87E/Q56L/Q94K/R106L/R155S/R180L/S101N/S121N/S48T/Y140D/Y33H/Y91C).
T4 construct: expressed in transfected cells; host or cells: RMA-S (TAP-deficient murine cell line)
The assay is described as follows: HLA/peptide complex stability assay, RMA-S cells transfected with HLA-B*2701. Particulars: SD.

In a further assay the target is HLA-B*2702 (Homo sapiens, UniProt P01889, D138H/D201E/E176V/E204Q/G107R/H137Y/K202T/L105A/N104I/N87E/Q56L/Q94K/R106L/R155S/R180L/S101N/S121N/S48T/Y140D/Y33H/Y91C). The assay is described as follows: HLA/peptide complex stability assay, RMA-S cells transfected with HLA-B*2702. Particulars: EC50, B*2702; SD.
For the next assay, the target named is T5, HLA-B*2709 (Homo sapiens, UniProt P01889, D138H/D201E/E176V/E204Q/G107R/H137Y/K202T/N104T/N87E/Q56L/Q94K/R106L/R155S/R180L/S101D/S121N/S48T/Y140H/Y33H/Y91C).
T5 construct: expressed in transfected cells; host or cells: RMA-S (TAP-deficient murine cell line)
The assay is described as follows: HLA/peptide complex stability assay, RMA-S cells transfected with HLA-B*2709. Particulars: EC50, B*2709; SD.

Ends that are not written are not given here.

For the sequence “RRAIATPGM [Flu PB1 238-246, reference compound]”, the EC50 on HLA-B*2705 is 3 ± 2 µM; on HLA-B*2703, 2 ± 1 µM; on HLA-B*2704 it was 9 ± 1 µM; at HLA-B*2706, 2 ± 1 µM; at HLA-B*2701 it was 5 ± 1 µM; on HLA-B*2702, 12 ± 4 µM. The EC50 at HLA-B*2709 was determined as 2 ± 1 µM.
